Assay results from patent US20220072138A1, “NRTI THERAPIES” (THE UNIVERSITY OF LIVERPOOL, priority 2018, published 2022).
One block for each compound: values may come before it.

Legend:
HIV [1] = settings: cited from earlier work
[2] = primate; cited from earlier work
HIV [3] = settings: in vivo; cited from earlier work
[4] = In vitro metabolism of FTC POP fragments in human liver S9; type: in vitro ADME; settings: human liver S9, 1 mM, 37° C.
Procedure: (§1) After incubation at 37° C., aliquots were taken at each time point and quenched in 2 volumes of Ice-cold methanol. The quenched aliquots were then centrifuged at 14000 rpm for 5 min. The supernatant was diluted 10-fold Into phosphate buffer (0.1 M, pH 7.4) and injected onto the HPLC for analysis (5% to 100% B over 8 minutes at a flow rate of 1 mL mi; solvent A: 50 mM Et3NHOAc, pH 8; solvent B: acetonitrile) and read spectrophotometrically monitoring a decrease in substrate peak area at 305 nm (23) or 280 nm (25) over time. Quantification of 23 at each time point to determine rate was achieved by converting peak areas to nmols using a standard curve (23). Quantification of 25 at each time point to determine rate was achieved by calculating nmols based on the percent of total peak area at 250 nm (25+26, 200 nmol total). Hydrolysis of 25 yields two molar equivalents of 1, determined by quantifying 1 using a standard curve following full conversion of 25 to 1.
Human Liver S9 Fraction-Pool of 50 (Sekuisi Xenotech, Product #HO610.59; 20 mg/mL stock)

[5] = In vitro metabolism of FTC POP fragments in human skeletal muscle S9; type: in vitro ADME; settings: human skeletal muscle S9, 1 mM, 37° C.
Procedure: as §1
Human S9-Skeletal Muscle (Bioreclamation IVT). Solution used for in vitro metabolism is a 50/50 mix of Male Human S9 (Bioreclamation IVT, Cat #S03517) and Female Human S9 (Bioreclamation IVT, Cat #S03518). Protein concentrations (mg/mL) were determined by averaging the concentrations provided by Bioreclamation.

in vitro = in vitro ADME; settings: both sexes, human, plasma, pH 7.4
Procedure: as §1
Human Plasma (Bioreclamation IVT). Solution used for in vitro metabolism is a 50/50 mix of Human Plasma (Male) (Bioreclamation IVT, Cat #[…]2-M) and Human Plasma (Female) (Bioreclamation IVT, Cat #[…]2-F)

[6] = Solubility of carbamate 5 in phosphate buffer; type: physicochemical; settings: 100 mM phosphate buffer pH 7.4 with 5% DMSO v/v
Procedure: Carbamate 5 was synthesized according to the process described above. Purity. The compound was dissolved in DMSO (100 μM) and injected on HPLC to determine purity of 95.1% at 269-270 nm. Standard Curve. Serial dilution of carbamate 5 in DMSO (100 μM to 0.78 μM) was done and each sample injected on HPLC. The UV absorbance at different concentrations was used to obtain a linear standard curve. The standard curve was used in determining solubility in buffers, kinetics of degradation at pH 7.4 and stability under polymerization conditions. Solubility. Carbamate 5 in DMSO was mixed with 100 mM phosphate buffer pH7.4 with varying amounts of DMSO (0.1% v/v, 0.5% v/v, 1% v/v and 5% v/v). The mixtures were centrifuged at 14000 rpm for 5 min and the supernatant injected on HPLC.

[7] = Stability of carbamate 5 under model polymerization conditions; type: physicochemical; settings: CH2Cl2, 0.5 eq DMAP, 2 eq pyridine, RT
Procedure: Stability of compound 5 under polymerization conditions. Carbamate 5 is shown to release TAF in a time bond manner. To determine the stability of carbamate moiety under polymerization conditions and evaluate the utility of TAF phenyl carbamates, carbamate 5 was tested for its stability under model polymerization conditions. A solution of carbamate 5 in methylene chloride (CH2Cl2) was stirred with 0.5 molar equivalent of 4-Dimethylaminopyridine and 2 molar equivalents of pyridine at room temperature (RT, 22-25° C.) for 24 h. The portion of the reaction mixture was removed and dissolved in DMSO followed by analysis of the reaction mixture using HPLC to determine amount of TAF formed and carbamate 5 left after 24 h. Standard curve was used to determine that 20.5% TAF was formed after 24 hours, leaving 79.5% carbamate 5 intact (FIG. 23).

Compound: C#C[C@]1(CO)O[C@@H](n2cnc3c(N)nc(F)nc32)C[C@@H]1O [EFdA, 4′-ethynyl-2-fluoro-2′-deoxyadenosine]
predicted in vitro potency relative to TFV (HIV [1]; higher than TFV): ~8400 fold
IC50 (HIV [1]; read-out: in vitro IC50): ~0.2 nM
plasma t1/2 [2]: ~7 h
viral suppression maintained after the last dose (HIV [3]): ≥ 7 days

Liver S9 initial rate (rate of disappearance of starting material) [4]: 0.6 ± 0.06 nmol/h/mg
Muscle S9 initial rate (rate of disappearance of starting material) [5]: *Non-linear trend
half-life at 1 mM (in vitro): 13 ± 1.5 h
Compound: O=C(Nc1nc(=O)n([C@@H]2CS[C@H](CO)O2)cc1F)OCCOCCOCCOC(=O)Nc1nc(=O)n([C@@H]2CS[C@H](CO)O2)cc1F [Polymer 23, (ethane-1,2-diylbis(oxy))bis(ethane-2,1-diyl) bis((5-fluoro-1-((2R,5S)-2-(hydroxymethyl)-1,3-oxathiolan-5-yl)-2-oxo-1,2-dihydropyrimidin-4-yl)carbamate)]

Liver S9 initial rate (rate of disappearance of starting material) [4]: 1014 ± 86 nmol/h/mg
Muscle S9 initial rate (rate of disappearance of starting material) [5]: 3.7 ± 0.4 nmol/h/mg
half-life at 1 mM (in vitro): 0.45 ± 0.02 h
Compound: Nc1nc(=O)n([C@@H]2CS[C@H](COC(=O)OCCOCCOCCOC(=O)OC[C@@H]3O[C@H](n4cc(F)c(N)nc4=O)CS3)O2)cc1F [Polymer 25, bis(((2R,5S)-5-(4-amino-5-fluoro-2-oxopyrimidin-1(2H)-yl)-1,3-oxathiolan-2-yl)methyl) ((ethane-1,2-diylbis(oxy))bis(ethane-2,1-diyl)) bis(carbonate)]

Compound: N-(2,4,6-trimethylphenyl)-tenofovir alafenamide carbamate [carbamate 5]
solubility (achievable concentration) [6]: 111.2 µM
TAF formed after 24 hours [7]: 20.5%
carbamate 5 left intact after 24 hours [7]: 79.5%
